Assay results as given in patent publication US6642434B1, “Transgenic plants with γ-tocopherol methyltransferase” (University of Community College System of Nevada, priority 1997, dated 2003).

Assays:
[1] = tested on: Synechocystis γ-tocopherol methyltransferase (SLR0089); experiment: γ-TMT assay with Synechocystis SLR0089 protein expressed in E. coli; type: biochemical, Synechocystis PCC6803; details: for use as substrate (methylation) by Synechocystis γ-TMT: 5 mM substrate, pH 7.5, 14C-methyl-SAM, 30 minutes room temperature
Method: (§1) The p011698-1 and p011898-1 constructs were used to transform the E. coli T7 expression host BL21(DE3). To generate protein for γ-TMT assays, one liter cultures of transformed host cells containing one of the constructs were grown in Luria broth containing 100 mg/liter ampicillin. Each culture was started at an optical density at 600 nm (OD600) of 0.1 and incubated in a shaking incubator at 28° C. until the culture reached an OD600 of 0.6, at which time isopropyl-, β-D-thiogalactopyranoside (IPTG) was added to each culture to obtain a final concentration of 0.4 mM IPTG. Each culture was incubated for an additional 3 hours at 28° C. and the cells were harvested by centrifugation at 8,000 g. The cell pellets were then resupended in 10 ml of 10 mM HEPES (pH 7.8), 5 mM DTT, 0.24 M sorbitol, 1 mM PMSF. The cells were lysed by sonication with a micro-tip sonicator using four 10-second pulses. Triton×100 was added to each homogenate to a final concentration of 1%. The homogenates were incubated on ice for 30 minutes, and subjected to centrifugation at 30,000 g for 30 minutes at 4° C. The supernatants of these extracts were assayed for γ-tocopherol methyltransferase activity as follows.
(§2) The γ-TMT assays were performed in 250 μl volumes containing 50 mM Tris (pH 7.5 for the Synechocystis and pH 8.5 for the Arabidopsis enzyme), 5 mM DTT, 5 mM γ- or δ-tocopherol, and 0.025 μCi (55 μCi/mmole) (^14C-methyl)-S-adenosylmethionine. Reaction mixtures were incubated at room temperature for 30 minutes. The reactions were stopped by adding of 1 ml of 2:1 (v:v) CHCl3: methanol containing 1 mg/ml butylated hydroxytolulene (BHT) and 250 μl of 0.9% NaCl in water, and vortexing. The samples were centrifuged to separate the phases. The CHCl3 (lower) phase was transferred to a fresh tube containing […] of α-tocopherol and the CHCl3 was then removed under vacuum in a speed-vac. The dried lipid fraction was resuspended in 50 μl ethyl acetate containing 1 mg/ml BHT. The lipid extracts were fractionated on silica 60 TLC plates in dichloromethane. Tocopherols were then identified by co-migration with authentic tocopherol standards after staining the plate with Emmerie-Engels solution (0.1% FeCl3, 0.25% 2,2′-dipyridyl in ethanol). The band corresponding to α-tocopherol was scraped from the TLC plate and the amount of radioactive material present was determined by scintillation counting.
(§3) The Synechocystis and Arabidopsis γ-tocopherol methyltransferases were tested for activity using several different methyl-substituted tocopherol substrates. […] The two enzymes were unable to use tocol, 5,7-diemethyltocol, β-tocopherol, and γ-tocotrienol as substrates. […] The Synechocystis and Arabidopsis γ-TMTs appear to require substrates with a methyl-group present on the 8 position of the chromanol ring and a fully saturated prenyl-tail for activity.

[2] = molecular target: T1, Arabidopsis γ-tocopherol methyltransferase (165H5T7) (Arabidopsis thaliana, UniProt Q9ZSK1); experiment: γ-TMT assay with Arabidopsis 165H5T7 protein expressed in E. coli; type: biochemical; details: for use as substrate (methylation) by Arabidopsis γ-TMT: 5 mM substrate, pH 8.5, 14C-methyl-SAM, 30 minutes room temperature
T1 construct: made in house; host or cells: E. coli BL21(DE3), pET3D vector; Triton X-100 supernatant of the lysate
T1 sequence (Q9ZSK1 51-348): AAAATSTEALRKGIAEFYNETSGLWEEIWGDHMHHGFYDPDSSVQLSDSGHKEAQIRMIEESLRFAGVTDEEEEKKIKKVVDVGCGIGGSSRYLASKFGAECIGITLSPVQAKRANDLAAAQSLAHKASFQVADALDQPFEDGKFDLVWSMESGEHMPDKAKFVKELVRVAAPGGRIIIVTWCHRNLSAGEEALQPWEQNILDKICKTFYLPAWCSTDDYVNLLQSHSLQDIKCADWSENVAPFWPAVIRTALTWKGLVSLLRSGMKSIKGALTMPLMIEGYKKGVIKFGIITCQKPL
Method: as §1, §2, §3

Structure (SMILES)	relative activity of Synechocystis γ-TMT toward γ- and δ-tocopherol [1]	use as substrate (methylation) by Synechocystis γ-TMT [1]	relative activity of Arabidopsis γ-TMT toward γ- and δ-tocopherol [2]	use as substrate (methylation) by Arabidopsis γ-TMT [2]
Cc1c(O)cc2c(c1C)O[C@](C)(CCC[C@H](C)CCC[C@H](C)CCCC(C)C)CC2 [γ-tocopherol]	equally active toward γ-tocopherol and δ-tocopherol	able to convert γ-tocopherol to α-tocopherol	greater activity with γ-tocopherol as the substrate than with the δ-tocopherol substrate	able to convert γ-tocopherol to α-tocopherol
Cc1cc(O)c(C)c2c1O[C@](C)(CCC[C@H](C)CCC[C@H](C)CCCC(C)C)CC2 [β-tocopherol]	–	unable to use	–	unable to use
CC(C)=CCC/C(C)=C/CC/C(C)=C/CC[C@]1(C)CCc2cc(O)c(C)c(C)c2O1 [γ-tocotrienol]	–	unable to use	–	unable to use
CC(C)CCCC(C)CCCC(C)CCCC1(C)CCc2cc(O)ccc2O1 (stereo not shown) [tocol]	–	unable to use	–	unable to use
Cc1cc2c(c(C)c1O)CCC(C)(CCCC(C)CCCC(C)CCCC(C)C)O2 (stereo not shown) [5,7-diemethyltocol]	–	unable to use	–	unable to use
Cc1cc(O)cc2c1O[C@](C)(CCC[C@H](C)CCC[C@H](C)CCCC(C)C)CC2 [δ-tocopherol]	equally active toward γ-tocopherol and δ-tocopherol	able to specifically convert δ-tocopherol to β-tocopherol	greater activity with γ-tocopherol as the substrate than with the δ-tocopherol substrate	able to specifically convert δ-tocopherol to β-tocopherol
